# From patent US12233057B2, “Small molecules for inhibiting chemokine activity and/or cancer cells growth” (AlonBio Ltd., priority 2015, dated 2025)
# How the values were obtained:
# other bacteria = details: Nomura et al., Biol Pharm Bull 2012; cited from earlier work
# Legionella = details: cited from earlier work
# [1] = tested on: MV4-11 human acute myeloid leukemia cells; test: Cancer cell viability assay, propidium iodide staining (FACS); format: cell-based
# Procedure: (§1) The cancer cells were incubated in cell medium with 1% fetal calf serum (FCS) at a concentration of 2×10^5 cells/well at a final volume of 250 μl in 96-well plate. The tested small molecule was added to the cells at the indicated concentrations. The cells were incubated for 24 hours and the number of dead and viable cells was then evaluated by fluorescence-activated cell sorting (FACS), using propidium iodide (PI) staining. The IC50 of the small molecule-induced cell death was determined using GraphPad Prism software.
# In order to assess the effect of BKT300 on cancer cells viability, the in vitro effect on MV4-11 human acute myeloid leukemia cells was evaluated. The MV4-11 cancer cells were incubated in RPMI cell medium with 1% fetal calf serum (FCS) at a concentration of 2×10^5 cells/well at a final volume of 250 μl in 96-well plate. BKT300 was added to the cells at the indicated concentrations. The cells were incubated for 24 hours and the number of dead and viable cells was then evaluated by fluorescence-activated cell sorting (FACS), using propidium iodide (PI) staining. The IC50 of […] cell death was determined using GraphPad Prism software.
# U937 cells [2] = test: Apoptosis and cell viability by annexin-V/PI assay in U937 cells; format: cell-based; details: U937, 24 hours; for Concentration at which an effect on apoptosis was observed / Concentration at which an effect on cell viability was observed: tested 0.1, 1 and 10 μM; for Effect on apoptosis: any of the tested concentrations (0.1, 1 and 10 μM)
# Procedure: (§2) U937 cells were incubated for 24 hours with RPMI medium 1% FCs in the presence of 0.1, 1, and 10 μM of Compounds A1, A3, B1, D1 and BKT300-3-c5, using DMSO as a solvent.
# Apoptosis and cell viability were measured using the annexin-V/PI assay.
# U937 cells [3] = test: Cell cycle by 7-AAD assay in U937 cells; format: cell-based; details: U937, 24 hours; for Effect on cell cycle: any of the tested concentrations (0.1, 1 and 10 μM)
# Procedure: as §2
# Cell cycle was measured using the 7-AAD assay.
# H460 = test: Inhibition of cell growth in additional cancer cell lines; format: cell-based; details: Homo sapiens, NCI-H460; 1.0 Micromolar; H460, Lung
# SDF-1 = test: Migration assay: Jurkat cells towards SDF-1 (Transwell); format: cell-based, human; details: for Inhibition of SDF-1/CXCR4 mediated migration of Jurkat cells: 1, 5, 10 and 50 μM (FIGS. 19A-B)
# Procedure: (§3) 600 μl of RPMI medium was added to the lower chambers of Transwell® transmigration plates, supplemented with 2 μg/ml of MIP3a, 100 ng/ml of SDF-1 or 10 ng/ml of MCP-1. The tested small molecule was added to the lower chambers at the indicated concentration, except in control samples. The MIP3a, SDF-1 or MCP-1 was incubated with the small molecule for 30 minutes at room temperature before the initiation of the migration assay. Following 30 minutes of incubation 2×10^5 immune cells were added to the upper chambers of the transmigration plates in a total volume of 100 μl. Cells which migrated within 3 hours to the bottom chamber of the Transwell® plates were counted using a FACScalibur™ flow cytometer.
# To evaluate migration towards SDF-1, Jurkat cells were re-suspended in RPMI medium containing 1% fetal calf serum (FCS).
# K562 = test: Inhibition of cell growth in additional cancer cell lines; format: cell-based; details: Homo sapiens; 1.0 Micromolar; K562, CML
# SU-DHL-6 = test: as above; format: cell-based; details: Homo sapiens; 1.0 Micromolar; SU-DHL-6, DLBCL
# Toledo = test: as above; format: cell-based; details: Homo sapiens, 1.0 Micromolar, DLBCL
# SKNBE = test: as above; format: cell-based; details: 1.0 Micromolar, Neuroblastoma
# HL60 = test: as above; format: cell-based; details: Homo sapiens, HL-60; 1.0 Micromolar; HL60, AML
# [4] = tested on: MV4-11, U937, REH, THP-1, NB4, PC-3 and B16-F10 cells; test: Cancer cell viability assay (PI staining), comparison with IPI-145 in all tested cell lines; format: cell-based; details: 24 hours
# Procedure: as §1
# The effect of BKT300-3-c5 on the viability of various cancer cells has been tested, as described under the “method” section hereinabove, and compared to the effect of IPI-145.
# FIGS. 22A-B, 23A-B, 24A-B and 25A-B present the effect of BKT300-3-c5 and IPI-145 on various leukemic cells: U937, REH, THP-1 and NB4, respectively.
# FIG. 26 presents the effect of BKT300-3-c5 and IPI-145 on prostate cancer PC-3 cells.
# FIG. 27 presents the effect of BKT300-3-c5 and IPI-145 on melanoma B16-F10 cells.
# RPMI8826 = test: Inhibition of cell growth in additional cancer cell lines; format: cell-based; details: 1.0 Micromolar; RPMI8826, Myeloma
# SU-DHL-4 = test: as above; format: cell-based; details: Homo sapiens; 1.0 Micromolar; SU-DHL-4, DLBCL
# various cancer cells = test: 7-ADD staining of various cancer cells (cell cycle / apoptosis); format: cell-based; details: 1 μM, 24-hour incubation, all tested cells (FIG. 29)
# Procedure: While further studying the activity of BKT300-3-c5, various cancer cells were incubated with 1 μM BKT300-3-c5, and without it (control), and then stained for 7-ADD.
# MCP-1 = MCP-1 (Homo sapiens, UniProt P13500); test: Migration assay: THP-1 cells towards MCP-1 (Transwell); format: cell-based; details: 0.1, 0.5, 1 and 10 μM (FIG. 20B)
# Procedure: as §3
# To evaluate migration towards MCP-1, JTHP-1 cells were re-suspended in RPMI medium containing 1% fetal calf serum (FCS).
# Farage = test: Inhibition of cell growth in additional cancer cell lines; format: cell-based; details: 1.0 Micromolar, DLBCL
# MV4-11 cells = test: Annexin-V and Propidium Iodide staining of MV4-11 cells; format: cell-based, human; details: 1 μM, 24 hours (FIG. 30)
# Procedure: In further studies, apoptosis induction by BKT300-3-c5 was established by incubating MV4-11 cells with and without BKT300-3-c5 (1 μM) for 24 hours, followed by staining the cells for Annexin-V and Propidium Iodide (PI).
# OVCAR3 = test: Inhibition of cell growth in additional cancer cell lines; format: cell-based; details: Homo sapiens, OVCAR-3; 1.0 Micromolar; OVCAR3, Ovarian
# caspase-3 = test: Cleaved caspase-3 by Western blot and Elisa in AML cell lines NB4, U937 and MV4-11; format: cell-based, human; details: 1 μM, 24 hours; NB4, U937 and MV4-11 (FIGS. 31A-C)
# Procedure: In still further studies, the role of caspase-3 (CASP3) in the BKT300-3-c5-induced apoptosis of AML cell lines NB4, U937 and MV4-11 was tested. Cells were incubated with BKT300-3-c5 (1 μM) for 24 hours, and were then tested for the presence of cleaved using mAb against human cleaved caspase 3 by Western blot and Elisa assay to caspase-3.
# glioblastoma = details: animal studies; Kioi et al. 2010; cited from earlier work
# [5] = animal studies; Wilson et al. 2011; cited from earlier work
# metastasis = details: animal studies; Smith et al. 2004; cited from earlier work
# MCP-1, sequence (P13500 24-99): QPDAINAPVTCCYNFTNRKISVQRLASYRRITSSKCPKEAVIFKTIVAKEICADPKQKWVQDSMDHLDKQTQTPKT
structure (smiles),measurement,setting,value
"CCCCCC(=O)Cc1cc(O)cc(O)c1Oc1cc(O)cc2cc(CCCCC)oc(=O)c12 [8-(2,4-dihydroxy-6-(2-oxoheptyl)-phenoxy)-6-hydroxy-3-pentyl-1H-isochromen-1-one]",Antibacterial activity against other bacteria,other bacteria,not against other bacteria
same,Antibacterial activity against Legionella,Legionella,potent antibacterial activity
"CCCCCC1C(=O)Nc2c(Oc3ccc(OC)cc3OC)cc(OC)cc2C1=O (stereo not shown) [BKT300-3-c5, 8-(2,4-dimethoxyphenoxy)-6-methoxy-3-pentylquinoline-2,4(1H,3H)-dione]",IC50,"[1]; Homo sapiens, MV4-11, 24 hour-treatment (FIG. 21B), read-out: IC50, viability of MV4-11 AML cells",0.85 µM
same,Concentration at which an effect on apoptosis was observed,U937 cells [2],0.1 µM
same,Concentration at which an effect on cell viability was observed,U937 cells [2],0.1 µM
same,Concentration at which cell cycle arrest is demonstrated,"U937 cells [3]; tested 0.1, 1 and 10 μM",0.1 µM
same,inhibition at 1 µM,H460,78%
same,"Inhibiting SDF-1/CXCR4 mediated migration of Jurkat cells, compared to IPI-145","SDF-1; 1, 5, 10 and 20 μM (FIG. 20A)",more effective that IPI-145
same,Inhibition of SDF-1/CXCR4 mediated migration of Jurkat cells,SDF-1,inhibition
same,inhibition at 1 µM,K562,71%
same,inhibition at 1 µM,SU-DHL-6,50%
same,inhibition at 1 µM,Toledo,4%
same,inhibition at 1 µM,SKNBE,73%
same,inhibition at 1 µM,HL60,94.9%
same,"Reducing the survival of cancer cells, compared to IPI-145",[4],superior effect compared to IPI-145
same,inhibition at 1 µM,RPMI8826,90.6%
same,inhibition at 1 µM,SU-DHL-4,34%
same,"Apoptotic cell death, 7-ADD staining",various cancer cells,induce apoptotic cell death
same,"Growth arrest (cell cycle), 7-ADD staining",various cancer cells,arrest the growth at the G2M phase
same,"Inhibiting MCP-1 induced migration of THP-1, compared to IPI-145",MCP-1,more effective that IPI-145
same,inhibition at 1 µM,Farage,40%
same,"Apoptosis induction, percentage of viable MV4-11 cells",MV4-11 cells,reduction in the percentage of viable cells via apoptosis
same,inhibition at 1 µM,OVCAR3,93.7%
same,Cleaved caspase-3 in induced apoptosis,caspase-3,via caspase-3 activation
"CCCCCc1cc(OC)ccc1Oc1cc(OC)cc2c1NC(=O)C(CCCCC)C2=O (stereo not shown) [BKT300-11-a5, 6-methoxy-8-(4-methoxy-2-pentylphenoxy)-3-pentylquinoline-2,4(1H,3H)-dione]",Effect on the viability of MV4-11 cells,"[1]; 1.328, 6.64, 13.28 and 26.56 μM (FIGS. 28A-B)",affect viability
same,Inhibition of SDF-1/CXCR4 mediated migration of Jurkat cells,SDF-1,inhibition
CCCCCc1cc2cc(O)cc(Oc3c(O)cc(O)c(C(=O)O)c3CCCCC)c2c(=O)o1 [BKT400],Inhibition of migration of Jurkat cells towards SDF-1,SDF-1; 1 and 10 μg/ml (FIG. 2C),inhibit
"COc1ccc(Oc2cc(OC)cc3c2NC(=O)CC3=O)c(OC)c1 [Compound A1, 8-(2,4-dimethoxyphenoxy)-6-methoxyquinoline-2,4(1H,3H)-dione]",Effect on apoptosis,U937 cells [2],no effect
same,Effect on cell cycle,U937 cells [3],no effect
"CCC1C(=O)Nc2c(Oc3ccc(OC)cc3OC)cc(OC)cc2C1=O (stereo not shown) [Compound A3, 8-(2,4-dimethoxyphenoxy)-3-ethyl-6-methoxyquinoline-2,4(1H,3H)-dione]",Effect on apoptosis,U937 cells [2],no effect
same,Effect on cell cycle,U937 cells [3],no effect
"CCCCCC1C(=O)Nc2c(Oc3ccc(OC)cc3)cc(OC)cc2C1=O (stereo not shown) [Compound B1, 6-methoxy-8-(4-methoxyphenoxy)-3-pentylquinoline-2,4(1H,3H)-dione]",Concentration at which an effect on apoptosis was observed,U937 cells [2],1 µM
same,Concentration at which an effect on cell viability was observed,U937 cells [2],1 µM
same,Concentration at which cell cycle arrest is demonstrated,"U937 cells [3]; tested 0.1, 1 and 10 μM",10 µM
same,Concentration at which some effect on cell cycle is already observed,"U937 cells [3]; tested 0.1, 1 and 10 μM",1 µM
"CCCCCC1C(=O)Nc2c(Oc3ccccc3OC)cc(OC)cc2C1=O (stereo not shown) [Compound D1, 6-methoxy-8-(2-methoxyphenoxy)-3-pentylquinoline-2,4(1H,3H)-dione]",Concentration at which an effect on apoptosis was observed,U937 cells [2],0.1 µM
same,Concentration at which an effect on cell viability was observed,U937 cells [2],0.1 µM
same,Concentration at which cell cycle arrest is demonstrated,"U937 cells [3]; tested 0.1, 1 and 10 μM",1 µM
"C[C@H](Nc1ncnc2nc[nH]c12)c1cc2cccc(Cl)c2c(=O)n1-c1ccccc1 [IPI-145, reference compound]","Apoptotic cell death, 7-ADD staining",various cancer cells,does not affect growth arrest nor apoptosis
same,"Growth arrest (cell cycle), 7-ADD staining",various cancer cells,does not affect growth arrest nor apoptosis
c1cc(CN2CCCNCCNCCCNCC2)ccc1CN1CCCNCCNCCCNCC1 [plerixafor],Effect on recurrence of glioblastoma,glioblastoma,reduce recurrence of glioblastoma associated with vasculogenesis
same,Effect on opioid-induced hyperalgesia,[5],counteract opioid-induced hyperalgesia
same,Effect on metastasis,metastasis,reduce metastasis
